Measured values: article PMC9496346, “Controversial Role of Transferrin in the Transport of Ruthenium Anticancer Drugs” (Biomolecules, 2022)
Marks after values point to notes of the source that are not given here.

Key:
[1] = tested on: HepG2 cells; assay: Cellular Ru uptake by HepG2 cells (ICP-MS); format: cell-based, human; conditions: HepG2, 24 h; 60 μM Ru, added HSA or Tf 30 μM; serum-free DMEM with ~15 μM BSA; media pre-equilibrated 24 h except B1
Experimental: (§1) Human hepatoma (HepG2) cells were originally received from the American Type Culture Collection (ATCC, Cat. No. HB-8065) and cultured as described previously. This cell line was used for Tf-dependent metal uptake studies because of the high expression levels of human TfR1 [43]. For treatments, the cells were grown to confluence in 24-well plates, using Advanced DMEM (Dulbecco’s modified Eagle’s minimal essential medium, Invitrogen Cat. No. 12491-015), supplemented with L-glutamine (2.0 mM), antibiotic-antimycotic mixture (100 mg mL^−1 penicillin, 100 mg mL^−1 steptomycin and 0.25 mg mL^−1 amphotericin B) and fetal calf serum (heat-inactivated, 2% v/v). Confluent cell layers were washed with serum-free treatment medium (DMEM, Invitrogen Cat. No. 19938-025), supplemented with glutamine, antibiotic-antimycotic mixture and 1.0 mg mL^−1 AlbuMax (Gibco Cat. No. 11020-021). […] After washing, the wells were filled with the treatment medium containing metal additions (detailed in B1–B9 of Table 1). The treatment media were sterilized by filtration through 0.2 µm membrane filters, and pre-equilibrated for 24 h at 310 K and 5% CO2 prior to the addition to cells, except for sample B1 that was used immediately after preparation. All the treatments were performed in triplicate, using random well positions to avoid experimental bias.
(§2) After 24 h incubation with the treatment media (B1–B9 in Table 1), the medium from each well was collected for the determination of Ru–protein binding and BLI analyses, and the wells were washed twice with PBS (0.50 mL/well). […]
(§3) The values of metal uptake were normalized using protein content in cell lysates. For protein determination, Bradford reagent (Sigma Cat. No B6916; 98 µL) was mixed with a small aliquot (2.0 µL) of each cell lysate, and the absorbance at 600 nm was measured using a Victor V3 plate reader. […] The test and calibration samples were analyzed in triplicate. […]

[2] = tested on: HepG2 cells; assay: Cellular Fe content of HepG2 cells (ICP-MS); format: cell-based, human; conditions: HepG2, 24 h; 60 μM Ru, added HSA or Tf 30 μM; serum-free DMEM with ~15 μM BSA
Experimental: as §1, §2, §3

[3] = tested on: protein in cell culture medium; assay: Ru–protein binding in cell culture medium (gel filtration, GFAAS); format: in vitro ADME; conditions: medium after 24 h cell treatment; gel filtration >6 kDa; 60 μM Ru, added HSA or Tf 30 μM, ~15 μM BSA
Experimental: An aliquot (50 µL) of cell culture medium from each well was passed through a separate Bio-Rad P6 centrifugal gel filtration column that was pre-saturated with PBS, according to manufacturer’s instructions. The eluants (50 ± 5 µL volume) contained protein-bound Ru fractions (>6 kDa molecular mass). The protein recovery, measured by Bradford assays, exceeded 95%. Another 50 µL sample of each medium was taken into separate tubes. Both the original and gel-filtered media samples were digested with 0.20 mL of 65% (v/v) HNO3 for 24 h. The digests were diluted with 0.75 mL of 0.10 M HCl, and the Ru content in the samples was determined by GFAAS. The percentage of protein binding was determined from the ratio of Ru content in the gel-filtered and original media samples [30, 31].

[4] = tested on: HepG2 cells; assay: Toxicity to HepG2 cells judged from cell morphology during treatment; format: cell-based, human; conditions: HepG2, 24 h incubation, 60 μM Ru
Experimental: as §1, with “All the treatments were performed in triplicate, using random well positions to avoid experimental bias.” left out
Cellular Fe levels were also measured to control the Tf-mediated Fe uptake. […]

[5] = tested on: T1, recombinant human transferrin receptor 1 (TfR1); assay: BLI of Tf–TfR1 binding in dilute human serum pre-treated with metal complexes; conditions: serum incubated with 100 μM Ru complex or 60 μM Fe(III) as citrate
T1 construct: extracellular domain (Cyst89-Phe760), (His)6-tagged at the N-terminus; purchased Sino Biological, Beijing, China (TfR1); Sigma (human serum, Cat. No. H4522, as source of Tf) 11020-H07H
Experimental: The effects of Ru complexes on the Tf cycle were determined by BLI using previously developed protocols. The instrument used was a single-channel BLItz analyser (ForteBio, Menlo Park, CA, USA) with a tube holder (250 µL solution volume) and Ni(II)–nta coated optical probes held at 295 ± 1 K. Measurements used the Advanced Kinetics mode. […] Solutions of metal–Tf adducts (typical final Tf concentrations 150 nM or 1.0 µM) were prepared in the binding buffer (Section 2.1). The pH 7.4 binding buffer was used for Tf binding and dissociation from the probe, and the pH 5.6 buffer (Section 2.1) was used to mimic the endosomal step of the Tf cycle. Metal–Tf solutions (A1–A9 in Table 1) were diluted 100–400-fold, cell culture media were diluted 30-fold, and human serum samples were diluted 200-fold with the binding buffer immediately before the BLI measurements. All BLI data were background corrected by using data from buffer only runs with the same TfR1-loaded optical probe. Consistent BLI results were obtained in at least two independent measurements, using different probes and different batches of Tf solutions. Calculations of the Tf–TfR1 binding constants were performed using the 1:1 binding model (BLItz software, Version 1.1, Forte-Bio 2013), which can be used as a reasonable approximation of the physiological 2:2 Tf–TfR1 binding mechanism at low Tf concentrations. […]
(b) BLI response curves for dilute human serum samples in the presence or absence of metal complexes. Intact commercial human serum (Sigma H4522) was incubated with Fe(III)-citrate (60 µM) or with Ru complexes (100 µM) for 4 h at 310 K, then diluted 200-fold (to [Tf] ~ 150 nM) with the binding buffer (20 mM HEPES, 25 mM NaHCO3, 140 mM NaCl, pH = 7.4), and analyzed with the TfR1-loaded BLI probe. Designations of the steps in Tf cycle (A–D) correspond to those in Figure 1d-f, main text. Calculated KD values (1:1 binding model, BLItz software) were as follows: 8.0 nM (serum + Fe(III) citrate); or 28 ± 2 nM (serum in the presence or absence of Ru complexes). Typical anticancer Ru complexes, NAMI-A, KP1019 and RAPTA-C, were synthesized and characterized previously in the Lay group.
(1 picture or pasted object on this page, not shown here)

[6] = Particle size (protein aggregation) by dynamic light scattering; format: physicochemical; conditions: DLS, 298 K; 10 μM Tf in binding buffer pH 7.4
Experimental: Protein samples (0.10 mM) were diluted 10-fold with binding buffer before the measurements. The measured parameters were the averages of 12–15 scans (scan time, 3 s). […] Analysis of Tf crystal structures that are available in the public domain from the Protein Data Bank (PDB) was performed with PyMOL software (version 2.1.1, Schrodinger LLC 2021, New York, NY, USA).

[7] = tested on: T2, recombinant human transferrin receptor 1 (TfR1); assay: BLI of Tf–TfR1 binding in dilute cell culture media after uptake experiments; conditions: 1.0 µM human Tf, 295 K; serum-free DMEM with 1.0 mg mL−1 BSA collected after HepG2 uptake experiments, diluted 30-fold; 1:1 binding model
T2 construct: extracellular domain (Cyst89-Phe760), (His)6-tagged at the N-terminus; purchased Sino Biological, Beijing, China (TfR1)
Experimental: The effects of Ru complexes on the Tf cycle were determined by BLI using previously developed protocols. The instrument used was a single-channel BLItz analyser (ForteBio, Menlo Park, CA, USA) with a tube holder (250 µL solution volume) and Ni(II)–nta coated optical probes held at 295 ± 1 K. Measurements used the Advanced Kinetics mode. […] Solutions of metal–Tf adducts (typical final Tf concentrations 150 nM or 1.0 µM) were prepared in the binding buffer (Section 2.1). The pH 7.4 binding buffer was used for Tf binding and dissociation from the probe, and the pH 5.6 buffer (Section 2.1) was used to mimic the endosomal step of the Tf cycle. Metal–Tf solutions (A1–A9 in Table 1) were diluted 100–400-fold, cell culture media were diluted 30-fold, and human serum samples were diluted 200-fold with the binding buffer immediately before the BLI measurements. All BLI data were background corrected by using data from buffer only runs with the same TfR1-loaded optical probe. Consistent BLI results were obtained in at least two independent measurements, using different probes and different batches of Tf solutions. Calculations of the Tf–TfR1 binding constants were performed using the 1:1 binding model (BLItz software, Version 1.1, Forte-Bio 2013), which can be used as a reasonable approximation of the physiological 2:2 Tf–TfR1 binding mechanism at low Tf concentrations.
(a) BLI response curves for 1.0 µM of human Tf at 295 K in dilute cell culture media after Ru uptake experiments by HepG2 cells (Section 3.2 in the main text). Media (serum-free DMEM, containing 1.0 mg mL−1 BSA as a background protein, as well as KP1019 and/or Tf, as shown in the figure legend), were collected after the end of uptake experiments, then were diluted 30-fold with buffer (20 mM HEPES + 25 mM NaHCO3 + 140 mM NaCl, pH = 7.4) and applied to TfR1-loaded BLI probe. Designations of the steps in Tf cycle (A–D) correspond to those in Figure 1d-f, main text. Calculated KD values (1:1 binding model, BLItz software) were as […]

Compound	Fe Content (cellular metal content) [2]	% Ru–Protein (proportion of protein-bound Ru in cell culture medium) [3]	Effect on Tf–TfR1 binding in whole human serum [5]	Mean Particle Size [6]	also measured
[Cl-].[Cl-].[Cl-].[Cl-].[Ru+3].c1ccc2[nH+][nH]cc2c1.c1ccc2[nH]ncc2c1.c1ccc2[nH]ncc2c1 [KP1019 fresh]	11.2 ± 6.5 ^f nmol per mg protein	46 ± 4 molar %	–	–	Ru Uptake (cellular metal content) [1]: 6.6 ± 2.8 ^e nmol per mg protein; Toxicity judged from cell morphology [4]: significant cell detachment
CS(C)=O.[Cl-].[Cl-].[Cl-].[Cl-].[Ru+3].c1c[nH+]c[nH]1.c1c[nH]cn1 [NAMI-A, (ImH)[Ru^IIICl4(Im)(S-dmso)]]	–	–	did not have any effect	–	–
Cc1ccc(C(C)C)cc1.[Cl][Ru]([Cl])[PH]12CN3CN(CN(C3)C1)C2 [RAPTA-C, [Ru^II(η^6-p-cymene)Cl2(pta)]]	–	–	did not have any effect	–	–
O=C([O-])CN(CC(=O)[O-])CC(=O)[O-].O=C([O-])CN(CC(=O)[O-])CC(=O)[O-].[Ru+3] [[Ru(nta)2]^3−, [Ru^III(nta)2]^3−]	1.4 ± 0.4 nmol per mg protein	2 ± 1 ^g molar %	–	–	Ru Uptake (cellular metal content) [1]: 0.09 ± 0.03 nmol per mg protein
Fe2Tf: fully Fe(III)-saturated human transferrin	–	–	–	7 ± 2 nm	Kd [7]: 22 nM
Fe(III) citrate	–	–	significantly increased the binding affinity	–	–
Ru2Tf: apoTf + 2.0 eq. [Ru^III(nta)2]^3−; Ru(III) bound to Fe(III) sites of transferrin	1.9 ± 0.7 nmol per mg protein	74 ± 3 ^g molar %	–	7 ± 1 nm	–
RuFeTf: apoTf + 1.0 eq. [Fe^III(nta)2]^3−, then 1.0 eq. [Ru^III(nta)2]^3−; mixed Ru(III)–Fe(III)–Tf adduct	–	–	–	6.5 ± 1 nm	–
apoTf: human apo transferrin	–	–	–	7 ± 1 nm	Kd [7]: 32 nM
monoFeTf: apoTf + 1.0 eq. [Fe^III(nta)2]^3−; mixture of FeCTf and FeNTf forms	–	–	–	7 ± 1 nm	–
